Source: publication PMC4520450, “Procyanidins Negatively Affect the Activity of the Phosphatases of Regenerating Liver” (PLoS ONE, 2015)

System: PRL-3 overexpressing HEK293 cell line
Experiment: Transwell cell migration assay
Assay type: cell-based
Details: 16 h, PRL-3 overexpressing cells
Description: To study if procyanidin C2 is able to inhibit PRL-1 and PRL-3 in cells, HEK293 cells were treated in a wound-healing assay (see the experimental procedures). […] As a control the empty vector cell line was again utilized. […] The migration speed was for all cell lines similar when treated with 50 μM of 9. To further corroborate these findings we performed additionally a transwell assay as an alternative way to study cell migration.
Fig 6 Wound healing abilities of PRL-1 or PRL-3 overexpressing or empty vector control HEK293 cell lines were analyzed in the presence of compound 9 or medium only. Cells were seeded at a concentration of 800,000 cells per insert and procyanidin C2 (9) was added at a concentration of 25 and 50 μM. A) Pictures of the wound gaps were taken at 0 h and 7 h for both conditions (with and without treatment). B) Quantification of the wound healing experiment. Speed of migration is shown for combined data from different replicates, as mean ± SD (n = 38–88). Two-sided t-tests with Welsh correction were performed for p < 0.05. ns = not significant;***: < 0.001; **: < 0.01; *: < 0.05. C) Effect of polyphenolic compounds in a transwell assay on the cell migration of HEK293 empty vector and PRL-3 overexpressing cell lines. Cells were seeded at a concentration of 100,000 cells per insert and procyanidin C2 (9) was added at a final concentration of 25 and 50 μM. Migration was allowed for 16 h before harvesting and staining with calcein AM for fluorescent readout. Mean ± SD (n = 60–72) is shown for combined data from different replicates. Two-sided t-tests with Welsh correction were performed for p < 0.05. ns = not significant. D) Quantification of wound healing experiment including blocking PRL-1 and PRL-3 with analog 3. Speed of migration is shown for combined data from different replicates, as mean ± SD (n = 63–82). Two-sided t-tests with Welsh correction were performed for p < 0.05.
HEK293 empty vector, PRL-1 and PRL-3 overexpressing cells were kept in selection medium (DMEM medium without Phenol red, supplemented with 10% FBS, 1% glutamine and 0.2% hygromycin and blasticidin) for one week until full confluency. Then, 0.1% tetracycline (1 mg/ml stock solution in ethanol) was added for induction of PRL-1 and PRL-3 expression in HEK293 PRL-1 and HEK PRL-3 wt 24 h prior plating on transwell inserts. For comparison, HEK293 empty vector was also treated with tetracycline. After 24 h, the medium was removed, cells were washed with PBS and starvation medium supplemented with 0.1% tetracycline was added. […] Then, 3x100 μL were taken from each well and transferred to a black assay plates and the relative concentration of the fluorescent product formed in the cells was determined by following the emission at 520 nm with excitation at 452 nm. […]

## Oc1cc(O)c2c(c1)O[C@H](c1ccc(O)c(O)c1)[C@@H](O)[C@@H]2c1c(O)cc(O)c2c1O[C@H](c1ccc(O)c(O)c1)[C@@H](O)[C@@H]2c1c(O)cc(O)c2c1O[C@H](c1ccc(O)c(O)c1)[C@@H](O)C2 [Procyanidin C2 (9), Procyanidin C2]
25 μM
  cell migration, transwell: did not lead to a significant change in cell migration
50 μM
  cell migration, transwell: significant decrease in migration
